According to patent US20160074353A1, “USE OF PETROSELINIC ACID TO FIGHT AGAINST AESTHETIC DISORDERS OF THE BODY FIGURE” (L'OREAL, priority 2013, published 2016):

Tested on: lipoxin A4
Experiment: Synthesis/release of lipoxin A4 by stimulated (PMA/A23187 + DHA/EPA) mononuclear blood cells, LC-MS quantification, % modulation relative to the control
Format: cell-based
Details: % modulation vs stimulated control
Description: Mononuclear blood cells are cultured under 5% CO2 and at 37° C. in a serum-free medium for macrophages (SFM Macrophage; Invitrogen 12065074) for 24 hours.
After this step, the medium is replaced with the same fresh test medium also containing the active agents at the various doses for 30 minutes in the presence of the various products to be evaluated, as indicated in the table of results below. The inflammatory response was then triggered in the presence of phorbol myristate (0.05 μM) and calcium ionophore (1 μM) and of a lipid substrate mixture composed of docosahexaenoic acid (DHA—1 μg/mL) and eicosapentaenoic acid (EPA—1 μg/mL).
The supernatants were then collected after 2 hours of stimulation and frozen at −80° C. before preparation for analysis by mass spectrometry.
Experimental triplicates (three wells) were prepared per experimental condition. Into each culture plate was placed a control corresponding to cells stimulated with the PMA/A23187 mixture and/or with addition of the equimolar mixture of fatty acids.
The thawed supernatants were concentrated by solid-phase extraction (SPE) and taken up in methanol before spectrometric analysis. The analytical method used consists in separating the various analytes by high-pressure liquid chromatography as a function of their retention time and in quantifying them by mass spectrometry. […]

Compound | Level of lipoxin A4 production (zinc gluconate 0.005 mg/ml) | Level of lipoxin A4 production (taurine 3.1 mg/ml)
Zinc gluconate | −5% | –
NCCS(=O)(=O)O [Taurine] | – | +38%
